{"source": "patent EP0942896B1", "about": "“SUBSTITUTED PHENOLS AND THIOPHENOLS USEFUL AS ANTIOXIDANT AGENTS” (Aventis Pharmaceuticals Inc., priority 1996, dated 1998)", "key": {"[1]": {"system": "Choleterol-Fed Female New Zealand White Rabbits", "test": "Hypocholesterolemic effects in cholesterol-fed rabbits: serum cholesterol, lipoprotein cholesterol, triglycerides", "type": "in vivo", "details": "% of control, diet 0.4%, 7 days, 0.2% cholesterol chow, N = 5", "from_the_text": "(§1) Perform five independent experiments in the following manner. Each study has a control group and 1-5 groups treated with MDL compound (N = 5 per group). Feed Female New Zealand White rabbits (Hazelton, ∼ 2.0-2.3 kg) 0.2% cholesterol enriched rabbit chow (Purina #5322) with or without 0.4% MDL compound. Solubilize the MDL compounds in 100% ethanol. Spray the chow with the MDL mixtures and allow to dry overnight in a chemical fume hood. Spray control chow with ethanol. Feed rabbits 100 grams food per day for 7 days (0.6% MDL 103,491 were fed for 14 days); make available water ad libitum. On day 7, bleed (~ 2 mL) rabbits (fasted overnight) from a marginal ear vein. Euthanize rabbits by carbon dioxide overdose. Record the total body and liver weights in grams. Record food as grams • day^-1 · rabbit^-1. Use aliquots of fresh serum for clinical chemistries, lipoprotein cholesterol determination, thiobarbituric acid reactive substances (TBARS) and compound and metabolite concentrations in serum. Freeze livers (∼ 5 gram aliquots) at -20°C for compound and metabolite concentration determination at a later time.\nAllow blood to clot at room temperature for 30 minutes. Obtain serum after centrifugation for 10 min at 5°C at 3000 rpm in a Beckman GPKR centrifuge with a GH rotor. Analyze by a COBAS MIRA autoanalyzer (Roche Diagnostics) using Roche diagnostic reagents for total cholesterol (CHOL, kit # 44334) and triglyceride (TG, kit # 44120). Calculate cholesterol and triglycerides as mg/dL.\nSeparate lipoprotein fractions (very low density lipoprotein, VLDL, low density lipoprotein, LDL and high density lipoprotein, HDL) on a Sepharose 6HR column (1 x 30 cm, Pharmacia) attached to a Waters Powerline HPLC system. Inject serum (50 µL) onto the column and elute with phosphate buffered saline, pH 7.4, at a flow rate of 0.5 mL/min. Add cholesterol reagent (Roche Diagnostics, kit # 44334, diluted with 20 mL water and then with 20 mL of 0.9% saline) at 0.2 mL/min to the post column eluant and incubate in a knitted PFTE Kratos reaction coil (Applied Biosystems) at 37°C for 5 min. Measure absorbance at 500 nm. The lipoprotein subfractions are quantitated as follows: (total serum cholesterol) x (% area under the curve for each subfraction) [formula]"}, "[2]": {"system": "oxidation of serum lipids", "test": "TBARS assay on serum of treated cholesterol-fed rabbits (CuSO4-initiated oxidation)", "type": "in vivo, Female New Zealand White rabbits", "details": "% of control, thiobarbituric acid reactive substances as nmole MDA, diet 0.4%, 7 days, N = 5", "from_the_text": "as §1, with “Freeze livers (∼ 5 gram aliquots) at -20°C for compound and metabolite concentration determination at a later time.” left out\nTBARS are a […] indication of the oxidation of lipids in a sample. […] Upon incubation with thiobarbituric acid, the absorbance of the aldehydes can be detected at 530-540 nm. […] Measure absorbances at 540 nm using a Biotek model EL311 microplate reader. The nmoles of MDA produced are calculated from a standard curve of 0 to 10 nmoles of MDA prepared from malonaldehyde bis(dimethylacetal). […]"}}}
{"smiles": "CC(C)=CCC[C@H](C)CCOc1cc(C(C)(C)C)c(O)c(C(C)(C)C)c1", "note": "[MDL 103,294, Phenol, 2,6-bis(1,1-dimethylethyl)-4-[(3,7-dimethyl-6-octenyl)oxy]-, (S)-]", "values": [{"measurement": "HDL", "setting": "[1]; High Density lipoprotein cholesterol", "result": 192, "unit": "%"}, {"measurement": "LDL", "setting": "[1]; Low Density lipoprotein cholesterol", "result": 82, "unit": "%"}, {"measurement": "chol tot.", "setting": "[1]; total cholesterol in serum, fasted overnight", "result": 94, "unit": "%"}, {"measurement": "TRIG", "setting": "[1]; triglycerides in serum", "result": 197, "unit": "%"}, {"measurement": "TBARS", "setting": "[2]", "result": 35, "unit": "%"}]}
